Measured values taken from patent US8993606B2, “Oral formulations for treating metal overload” (FerroKin BioSciences, Inc., priority 2011, dated 2015).
Counter-ions that a name gives are not always drawn.

Experiments:
Type in all cases: physicochemical
[1] = Solvent grinding experiments of magnesium salt form A, XRPD result; details: solvent printed as — (none)
Description: The results of solvent grinding experiments of (S)-3′-(OH)-DADFT-PE magnesium salt form A are given below in Table 39, wherein LC stands for low crystallinity.

[2] = Slurry experiments of magnesium salt form A, XRPD result; parameters: key: IS stands for insufficient solid
Description: The results of slurry experiments of (S)-3′-(OH)-DADFT-PE magnesium salt form A are given below in Table 36, wherein d stands for day, and IS stands for insufficient solid.

[3] = Vapor stress experiments of amorphous magnesium salt, XRPD result; parameters: key: IS stands for insufficient solid
Description: The results of vapor stress experiments of amorphous (S)-3′-(OH)-DADFT-PE magnesium salt are given below in Table 37, wherein LC stands for low crystallinity and IS stands for insufficient solid.

[4] = Vapor diffusion experiments of amorphous magnesium salt, XRPD result; details: antisolvent Hexanes
Description: The results of vapor diffusion experiments of amorphous (S)-3′-(OH)-DADFT-PE magnesium salt are given below in Table 38, wherein LC stands for low crystallinity.

[5] = Aqueous solubility of salts; details: tromethamine salt; read-out: aqueous solubility
Description: Typically, oral formulations described herein facilitate solubilizing an active ingredient (e.g., a desazadesferrithiocin analog, salt or polymorph) at a desired amount or rate suitable for the treatment of metal overload. As used herein, the term “solubility” is generally intended to be synonymous with the term “aqueous solubility,” and refers to the ability, and the degree of the ability, of a compound to dissolve in water or an aqueous solvent or buffer, as might be found under physiological conditions. Aqueous solubility is, in and of itself, a useful quantitative measure, but it has additional utility as a correlate and predictor, with some limitations which will be clear to those of skill in the art, of oral bioavailability. Typically, a soluble compound is generally desirable, and the more soluble, the better. In liquid formulations, solubility is typically reported in mg/mL, but other measures, such as g/g, may be used. Solubilities typically deemed acceptable may range from 1 mg/mL into the hundreds or thousands of mg/mL.
Solubility may be measured under varying conditions. For example, it may be measured under conditions similar to those found in the body, such as at gastric pH or at physiologic or near-physiologic pH. “Gastric pH” as used herein means about pH 1. […]

[6] = Dynamic vapor sorption/desorption (DVS)
Description: As described above, Form D was obtained via DVS experimentation with Form B, and Form B was generated with crystallization experiments using solvent mixtures containing methanol or water (e.g., MeOH/acetone, IPA/MeOH, heptane/MeOH, water (solvent grinding), water (antisolvent precipitation), or water (slurry at ambient)). DVS experimentation with Form B is as follows: Dynamic vapor sorption/desorption (DVS) data were collected on a VTI SGA-100 Vapor Sorption Analyzer. Sorption and desorption data were collected over a range of 5% to 95% relative humidity (RH) at 10% RH intervals under a nitrogen purge. Samples were not dried prior to analysis. Equilibrium criteria used for analysis were less than 0.0100% weight change in 5 minutes, with a maximum equilibration time of 3 hours if the weight criterion was not met. Data were not corrected for the initial moisture content of the sample. Sodium chloride and polyvinylpyrrolidine were used as calibration standards.

[7] = Relative humidity stress (deliquescence, hygroscopicity); details: ~75% RH stress

With `COCCOCCOCCOc1cccc(C2=N[C@@](C)(C(=O)[O-])CS2)c1O.COCCOCCOCCOc1cccc(C2=N[C@@](C)(C(=O)[O-])CS2)c1O.[Mg+2]` [listing 1 of 2 here] the “XRPD Result” value [1] was “A (LC)”, the “XRPD Result” value ([2]; solvent ACN/THF (1:1), 60° C./4 d) was “A + peaks” and the “XRPD Result” value ([2]; solvent EtOH/H2O (1:1), Ambient) was “IS”. The “XRPD Result” value ([2]; solvent EtOH/H2O (1:9), Ambient) was “IS”, the “XRPD Result” value ([2]; solvent Heptane/DCM (2:8), Ambient) was “A (LC)” and the “XRPD Result” value ([2]; solvent Heptane/EtOH (2:8), Ambient) was “Amorphous”. For the same compound, the “XRPD Result” value ([2]; solvent IPA, 60° C./4 d) was “Amorphous”, the “XRPD Result” value ([2]; solvent IPA/Acetone (1:1), Ambient) was “IS” and the “XRPD Result” value ([2]; solvent Water, 60° C./1 d) was “Amorphous”.

In the case of `COCCOCCOCCOc1cccc(C2=N[C@@](C)(C(=O)[O-])CS2)c1O.COCCOCCOCCOc1cccc(C2=N[C@@](C)(C(=O)[O-])CS2)c1O.[Mg+2]` [listing 2 of 2 here], the “XRPD Result” value ([3]; solvent 1,4-Dioxane) is reported as “IS”, the “XRPD Result” value ([3]; solvent Acetone) is reported as “A (LC)” and the “XRPD Result” value ([3]; solvent DCM) is reported as “IS”. For the same compound, the “XRPD Result” value ([3]; solvent EtOAc) was “IS”, the “XRPD Result” value ([3]; solvent MEK) was “IS” and the “XRPD Result” value ([4]; solvent Acetone) was “A (LC)”. For the same compound, the “XRPD Result” value ([4]; solvent DCM) was “A (LC)”, the “XRPD Result” value ([4]; solvent EtOAc) was “A (LC)” and the “XRPD Result” value ([4]; solvent MEK) was “Amorphous”. The “XRPD Result” value ([4]; solvent THF) was “A (LC)” and the “XRPD Result” value ([4]; solvent Toluene) was “A (LC)”.

For `COCCOCCOCCOc1ccc(C2=N[C@@](C)(C(=O)O)CS2)c(O)c1` [Compound 2, Tromethamine salt of (S)-4′-(OH)-DADFT-PE], the solubility [5] was > 124 mg/mL, the weight gained ([6]; above ~65% RH) was ~50.3 wt % and the water uptake ([6]; below ~65% RH) was ~1.5 wt %. For the same compound, the “deliquescence upon RH stress” value [7] was “no apparent deliquescence”.

With `COCCOCCOCCOc1cccc(C2=N[C@@](C)(C(=O)O)CS2)c1O` [Form B, (S)-3′-(OH)-DADFT-PE magnesium salt form B] the “hygroscopicity (DVS data)” value [6] was “hygroscopic”, the “weight loss upon desorption” value [6] was 26.6% and the “additional weight gain during sorption step” value ([6]; above 65% RH, without reaching equilibrium weight) was 21.2%. The “weight loss upon equilibrium” value ([6]; at 5% RH) was 10.8% and the “weight gain during sorption step” value ([6]; from 5% to 65% RH) was 5.7%.
